Entries after “also recorded” stand apart in the source; their conditions may differ.
Legend:
[1] = biological target: T1, GABAA α5β3γ2 subtype receptor (Homo sapiens, UniProt P18507+P31644); test: GABA-gated Cl- current potentiation in Xenopus oocytes expressing GABAA α5β3γ2 (TEVC); assay type: cell-based; details: for activation at 1 µM: read-out: GABA α5 EC50 % potentiation; for positive allosteric modulation of GABA at GABAA α5 receptors: concentration response 0.01-100 μM, FIGS. 1(A)-(D)
T1 construct: myc-His (vector-encoded); expressed in transfected cells; host or cells: Xenopus laevis oocytes injected with cDNAs
T1 sequence (P31644 32-462): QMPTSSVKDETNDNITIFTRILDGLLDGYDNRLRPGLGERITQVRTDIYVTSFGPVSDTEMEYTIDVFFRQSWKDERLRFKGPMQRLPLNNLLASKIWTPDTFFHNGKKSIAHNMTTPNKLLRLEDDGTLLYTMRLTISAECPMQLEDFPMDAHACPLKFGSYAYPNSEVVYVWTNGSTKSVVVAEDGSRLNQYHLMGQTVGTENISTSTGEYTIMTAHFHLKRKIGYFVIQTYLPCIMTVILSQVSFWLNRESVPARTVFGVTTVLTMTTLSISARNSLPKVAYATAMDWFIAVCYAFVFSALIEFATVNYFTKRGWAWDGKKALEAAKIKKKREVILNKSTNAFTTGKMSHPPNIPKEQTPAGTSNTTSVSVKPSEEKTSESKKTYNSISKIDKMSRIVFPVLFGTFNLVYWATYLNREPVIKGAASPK
T1 sequence (P28472 26-473 partner): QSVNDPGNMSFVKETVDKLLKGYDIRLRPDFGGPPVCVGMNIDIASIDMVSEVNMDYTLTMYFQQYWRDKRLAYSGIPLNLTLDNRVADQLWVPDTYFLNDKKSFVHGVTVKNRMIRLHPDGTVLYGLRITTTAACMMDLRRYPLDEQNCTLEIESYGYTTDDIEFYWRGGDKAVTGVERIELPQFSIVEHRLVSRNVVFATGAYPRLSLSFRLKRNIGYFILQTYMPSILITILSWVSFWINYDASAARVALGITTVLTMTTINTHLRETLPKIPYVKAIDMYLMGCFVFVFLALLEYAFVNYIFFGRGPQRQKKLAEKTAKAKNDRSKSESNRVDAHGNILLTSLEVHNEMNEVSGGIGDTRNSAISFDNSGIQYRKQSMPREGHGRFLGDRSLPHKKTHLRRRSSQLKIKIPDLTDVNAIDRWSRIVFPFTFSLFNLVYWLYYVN
T1 sequence (P18507 40-467 limits assumed): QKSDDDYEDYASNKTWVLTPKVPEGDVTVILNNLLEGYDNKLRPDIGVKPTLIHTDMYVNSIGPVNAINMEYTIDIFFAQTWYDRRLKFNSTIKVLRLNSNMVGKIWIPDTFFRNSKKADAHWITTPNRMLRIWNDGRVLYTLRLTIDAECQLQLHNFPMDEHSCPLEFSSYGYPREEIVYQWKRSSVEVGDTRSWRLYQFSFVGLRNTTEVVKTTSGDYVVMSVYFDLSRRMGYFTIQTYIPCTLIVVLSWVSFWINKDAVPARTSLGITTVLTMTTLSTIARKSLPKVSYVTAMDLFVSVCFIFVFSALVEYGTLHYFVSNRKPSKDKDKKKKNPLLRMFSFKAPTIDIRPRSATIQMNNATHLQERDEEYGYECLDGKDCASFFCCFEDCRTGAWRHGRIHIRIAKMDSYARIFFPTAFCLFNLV
Source text: (§1) Step 1: Establish Clones of GABAAR Subunits (α5, β3, γ2, α1, α2 and α3) and Prepare the Corresponding cRNAs: Human clones of GABAA-R α5, β3, γ2, α1, α2 and α3 subunits are obtained from commercial resources (e.g., OriGene, http://www.origene.com and Genescript, http://www.genescript.com). These clones are engineered into pRC, pCDM, pcDNA, and pBluescript KSM vector (for oocyte expression) or other equivalent expression vectors. Conventional transfection agents (e.g., FuGene, Lipofectamine 2000, or others) are used to transiently transfect host cells.
Adult female Xenopus laevis frogs were purchased from Nasco (Fort Atkinson, Wis.). […] All chemicals used were of reagent grade. […] Stock solutions of Diazepam, Flumazenil and compounds of the present invention were prepared in dimethyl sulfoxide (DMSO) and then diluted to an appropriate concentration with the extracellular solution just before use. To avoid adverse effects from DMSO exposure, the final concentration of DMSO was not higher than 0.3% (v/v).
Upon conclusion of compound testing and successful washout, a 1.0 μM Diazepam was tested and used for comparative activity on the two GABAAR subtypes.
Other concentrations of the test compound may also be tested following the same protocol.
Results are expressed as mean±SEM.

[2] = biological target: T2, GABAA α1 receptors (α1β2γ2) (Homo sapiens, UniProt P14867+P18507); test: GABA-gated Cl- current in Xenopus oocytes expressing GABAA α1β2γ2 (TEVC), off-target activity; assay type: cell-based; details: concentration response 0.01-100 μM; FIGS. 1(A)-(D)
T2 construct: expressed in transfected cells; host or cells: Xenopus laevis oocytes injected with cDNAs
T2 sequence (P14867 28-456): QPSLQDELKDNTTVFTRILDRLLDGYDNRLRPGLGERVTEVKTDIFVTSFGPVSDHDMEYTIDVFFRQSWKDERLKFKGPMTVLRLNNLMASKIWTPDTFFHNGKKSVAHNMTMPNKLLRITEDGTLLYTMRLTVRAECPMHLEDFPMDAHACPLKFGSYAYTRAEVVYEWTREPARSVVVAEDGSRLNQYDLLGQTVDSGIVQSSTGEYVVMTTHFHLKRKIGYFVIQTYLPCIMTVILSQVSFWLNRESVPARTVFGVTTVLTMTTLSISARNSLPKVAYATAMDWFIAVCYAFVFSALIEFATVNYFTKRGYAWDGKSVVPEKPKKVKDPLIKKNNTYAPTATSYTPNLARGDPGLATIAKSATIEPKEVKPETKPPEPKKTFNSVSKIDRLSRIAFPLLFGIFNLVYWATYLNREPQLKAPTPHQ
T2 sequence (P47870 25-512 partner limits assumed): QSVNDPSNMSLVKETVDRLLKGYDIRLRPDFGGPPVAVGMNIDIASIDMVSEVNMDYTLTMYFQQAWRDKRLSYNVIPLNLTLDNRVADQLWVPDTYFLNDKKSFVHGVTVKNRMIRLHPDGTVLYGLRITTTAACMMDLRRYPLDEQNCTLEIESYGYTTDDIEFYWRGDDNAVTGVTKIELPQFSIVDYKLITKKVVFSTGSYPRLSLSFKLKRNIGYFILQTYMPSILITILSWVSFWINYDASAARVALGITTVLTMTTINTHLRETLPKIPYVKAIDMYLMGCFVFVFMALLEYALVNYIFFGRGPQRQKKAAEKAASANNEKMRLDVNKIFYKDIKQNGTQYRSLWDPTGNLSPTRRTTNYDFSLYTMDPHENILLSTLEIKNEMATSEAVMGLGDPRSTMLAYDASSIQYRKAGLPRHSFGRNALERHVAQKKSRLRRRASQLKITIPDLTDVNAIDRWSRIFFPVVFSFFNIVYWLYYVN
T2 sequence (P18507 40-467 limits assumed): T1 sequence (P18507 40-467 limits assumed)
Source text: as §1
Xenopus oocytes were isolated according to previously published procedures (see, e.g., Goldin et al. Methods Enzymol. 207:266-279 (1992)). The isolated Xenopus oocytes were injected with GABAAR cDNAs (1:1:1 ratio for a total volume of 1 ng of α1βγ2 or α5β3γ2) cloned into mammalian expression vectors. In particular, α1, β2, γ2 were cloned into pcDNA3.1. and α5 and β3 were cloned into pcDNA3.1 myc-His. Vectors were verified by partial sequencing (DNA Core Facility, University of Southern California, USA). After injection, oocytes were stored in incubation medium (Modified Barth's Saline (MBS) supplemented with 2 mM sodium pyruvate, 0.5 mM theophylline and 50 mg/L gentamycin), in petri dishes (VWR, San Dimas, Calif.). All solutions were sterilized by passage through 0.22 μM filters. […] Oocytes were used in experiments for up to 5 days after injection.
A high-throughput two-electrode voltage clamp (TEVC) system (OpusXpress A6000; Molecular Devices, Union City, Calif.), which automates the impalement of oocytes, fluid delivery and current recording from 8 oocytes in parallel, was used to carry out all electrophysiological recordings.
Xenopus Oocytes expressing GABAA-R α5β3γ2 or α1β2γ2 subtype, as prepared in section (A) above, were placed in 8 chambers of OpusXpress and perfused by MBS at 3 mL/min. Glass electrodes back-filled with 3 M KCl (0.5-3 megaohms) were used. Membrane potential of oocytes was voltage-clamped at −60 mV. Oocytes with holding current larger than 0.5 μA were discarded.
Data for each experimental point were obtained from 4 or more Xenopus oocytes and from at least two different frogs. The n refers to the number of Xenopus oocytes tested. Results are expressed as mean±SEM. […] Prism (GraphPAD Software, San Diego, Calif.) and Excel were used to perform curve fitting and statistical analyses.

GABAA α5 receptor = GABAA α5 receptor (Rattus norvegicus, UniProt P18508+P19969); test: GABAA α5 receptor occupancy in vivo with Ro 15-4513 tracer (hippocampus vs cerebellum); details: tracer 1 μg/kg, i.v., after vehicle administration
Source text: Adult male Long Evans rats (265-295 g, Charles River, Portage, Mich., n=4/group) were used for GABAA α5 receptor occupancy studies. Rats were individually housed in ventilated stainless-steel racks on a 12:12 light/dark cycle. Food and water were available ad libitum.
Ro 15-4513 was used as a receptor occupancy (RO) tracer for GABAA α5 receptor sites in the hippocampus and cerebellum. Ro 15-4513 was chosen as the tracer based on its selectivity for GABAA α5 receptors relative to other alpha subunit containing GABAA receptors and because it has been successfully used for GABAA α5 RO studies in animals and humans (see, e.g., Lingford-Hughes et al., J. Cereb. Blood Flow Metab. 22:878-89 (2002); Pym et al, Br. J. Pharmacol. 146: 817-825 (2005); and Maeda et al., Synapse 47: 200-208 (2003)). Ro 15-4513 (1 μg/kg), was dissolved in 25% hydroxyl-propyl beta-cyclodextrin and administered i.v. 20′ prior to the RO evaluations. Methyl 3,5-diphenylpyridazine-4-carboxylate (0.1-10 mg/kg) was synthesized by Nox Pharmaceuticals (India) and was dissolved in 25% hydroxyl-propyl beta-cyclodextrin and administered i.v. 15′ prior to tracer injection.
The rats were sacrificed by cervical dislocation 20′ post tracer injection. The whole brain was rapidly removed, and lightly rinsed with sterile water. Trunk blood was collected in EDTA coated eppendorf tubes and stored on wet ice until study completion. Hippocampus and cerebellum were dissected and stored in 1.5 ml eppendorf tubes, and placed on wet ice until tissue extraction. In a drug naïve rat, six cortical brain tissues samples were collected for use in generating blank and standard curve samples.
Acetonitrile containing 0.1% formic acid was added to each sample at a volume of four times the weight of the tissue sample. For the standard curve (0.1-30 ng/g) samples, a calculated volume of standard reduced the volume of acetonitrile. The sample was homogenized (FastPrep-24, Lysing Matrix D; 5.5 m/s, for 60 seconds or 7-8 watts power using sonic probe dismembrator; Fisher Scientific) and centrifuged for 16-minutes at 14,000 rpm. The (100 μl) supernatant solution was diluted by 300 μl of sterile water (pH 6.5). This solution was then mixed thoroughly and analyzed via LC/MS/MS for […] (tracer) and methyl 3,5-diphenylpyridazine-4-carboxylate.
Receptor occupancy was determined by the ratio method which compared occupancy in the hippocampus (a region of high GABAA α5 receptor density) with occupancy in the cerebellum (a region with low GABAA α5 receptor density) and additionally by a high dose of the GABAA α5 negative allosteric modulator L-655,708 (10 mg/kg, i.v.) to define full occupancy.

GABAA α5 receptor, sequence (P19969 32-464 limits assumed): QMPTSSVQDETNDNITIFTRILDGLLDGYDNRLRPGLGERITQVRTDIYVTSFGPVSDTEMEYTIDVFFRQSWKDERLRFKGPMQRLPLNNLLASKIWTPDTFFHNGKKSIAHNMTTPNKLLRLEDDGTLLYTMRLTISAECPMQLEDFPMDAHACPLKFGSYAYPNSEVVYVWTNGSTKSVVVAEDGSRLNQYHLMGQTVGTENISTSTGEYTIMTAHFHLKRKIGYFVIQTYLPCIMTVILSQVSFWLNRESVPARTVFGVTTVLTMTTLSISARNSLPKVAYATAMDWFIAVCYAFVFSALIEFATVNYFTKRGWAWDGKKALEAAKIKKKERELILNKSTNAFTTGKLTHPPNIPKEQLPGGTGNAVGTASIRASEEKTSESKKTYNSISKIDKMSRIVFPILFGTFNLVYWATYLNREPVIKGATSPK
GABAA α5 receptor, sequence (P18508 39-466): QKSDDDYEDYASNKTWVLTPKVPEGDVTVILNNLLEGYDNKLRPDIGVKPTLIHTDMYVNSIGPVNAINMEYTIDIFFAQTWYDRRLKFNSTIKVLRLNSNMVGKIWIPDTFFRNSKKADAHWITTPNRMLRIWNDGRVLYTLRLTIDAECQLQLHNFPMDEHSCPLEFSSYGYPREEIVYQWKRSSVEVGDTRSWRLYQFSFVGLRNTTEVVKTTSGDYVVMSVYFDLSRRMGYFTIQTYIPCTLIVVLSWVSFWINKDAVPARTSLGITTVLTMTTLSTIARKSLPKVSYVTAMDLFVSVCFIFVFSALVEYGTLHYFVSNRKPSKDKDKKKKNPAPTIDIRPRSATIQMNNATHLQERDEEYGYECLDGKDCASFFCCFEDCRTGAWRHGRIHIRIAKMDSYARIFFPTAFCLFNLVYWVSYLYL
GABAA α5 receptor, sequence (P63079 26-473 partner): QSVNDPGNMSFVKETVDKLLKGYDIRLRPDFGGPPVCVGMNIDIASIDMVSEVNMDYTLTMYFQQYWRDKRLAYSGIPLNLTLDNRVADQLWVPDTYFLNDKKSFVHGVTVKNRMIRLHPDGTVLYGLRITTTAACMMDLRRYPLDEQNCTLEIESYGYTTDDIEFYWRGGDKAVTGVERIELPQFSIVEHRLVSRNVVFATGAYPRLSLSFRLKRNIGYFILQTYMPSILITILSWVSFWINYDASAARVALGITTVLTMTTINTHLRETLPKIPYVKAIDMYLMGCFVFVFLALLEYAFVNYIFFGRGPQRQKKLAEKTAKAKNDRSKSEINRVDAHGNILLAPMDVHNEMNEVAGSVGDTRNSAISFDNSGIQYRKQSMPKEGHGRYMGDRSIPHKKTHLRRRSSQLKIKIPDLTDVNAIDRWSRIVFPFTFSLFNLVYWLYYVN

Structure (SMILES)	activation at 1 µM [1]	positive allosteric modulation of GABA at GABAA α5 receptors [1]	positive allosteric modulation at GABAA α1 receptors [2]	levels of Ro 15-4513 in hippocampus compared with cerebellum (GABAA α5 receptor)
CNC(=O)c1c(-c2ccccc2)cnnc1-c1ccccc1 [Compound 1, N-methyl-3,5-diphenylpyridazine-4-carboxamide]	8.5%			
CC(C)NC(=O)c1c(-c2ccccc2)cnnc1-c1ccccc1 [Compound 2]	8.2%			
NC(=O)c1c(-c2ccccc2)cnnc1-c1ccccc1 [Compound 3]	11.1%			
CN(C)C(=O)c1c(-c2ccccc2)cnnc1-c1ccccc1 [Compound 4]	42%	strong positive allosteric modulation	markedly reduced positive allosteric modulation	
O=C(c1c(-c2ccccc2)cnnc1-c1ccccc1)N(Cc1ccccc1)Cc1ccccc1 [Compound 5]	4.6%			
O=C(NCc1ccccc1)c1c(-c2ccccc2)cnnc1-c1ccccc1 [Compound 9]	10%			
COc1cccc(-c2nncc(-c3ccccc3)c2C(=O)O)c1 [Compound 11]	19.2%			
CC1COC(c2c(-c3ccccc3)cnnc2-c2ccccc2)=N1 (centres unmarked) [Compound 21, 2-(3,5-diphenylpyridazin-4-yl)-4-methyl-4,5-dihydrooxazole]	5.3%			
CCc1coc(-c2c(-c3ccccc3)cnnc2-c2ccccc2)n1 [Compound 22, 2-(3,5-diphenylpyridazin-4-yl)-4-ethyloxazole]	8.6%			
COc1cccc(-c2nncc(-c3ccccc3)c2-c2nc(C)co2)c1 [Compound 24]	6%			
COC(=O)C1COC(c2c(-c3ccccc3)cnnc2-c2ccccc2)=N1 (centres unmarked) [Compound 25, Methyl 2-(3,5-diphenylpyridazin-4-yl)-4,5-dihydrooxazole-4-carboxylate]	8.6%			
COC(=O)c1coc(-c2c(-c3ccccc3)cnnc2-c2ccccc2)n1 [Compound 26, Methyl 2-(3,5-diphenylpyridazin-4-yl)oxazole-4-carboxylate]	15.8%	strong positive allosteric modulation	markedly reduced positive allosteric modulation; also recorded: no evidence of activity	
COC(=O)c1coc(-c2c(-c3ccccc3)cnnc2-c2cccc(Cl)c2)n1 [Compound 27]	30.5%	strong positive allosteric modulation	markedly reduced positive allosteric modulation	
CCOC(=O)c1ncn2c1CN(C)C(=O)c1cc(N=[N+]=[N-])ccc1-2 [Ro 15-4513]				> 5 fold

From patent US9145372B2, “Pyridazine derivatives, compositions and methods for treating cognitive impairment” (AGENEBIO, INC., priority 2010, dated 2015)
